Earlier results on three compounds are cited in patent US20040259736A1, “Biodegradable solid preparation of a phytopathologicalagent with delayed active substance release” (priority 2001, published 2004).

Each structure is given as a SMILES string. Values after ≈ are worked out from the molar mass of the structure shown.

Take `CNC(=N[N+](=O)[O-])NCC1CCOC1` (stereo not shown) [MTI-446]: the solubility in water was 54000 µg/mL (≈ 267000 µM) and the “solubility in water (in words)” value is “freely soluble in water”.

`CNC(=O)C(=NOC)c1ccccc1CO/N=C(\C)C(=NOC)/C(C)=N/OC` [II-4, N-Methyl-2-(methoxyimino)-2-{2-[(3E,6E)-5-(methoxyimino)-4,6-dimethyl-2,8-dioxa-3,7-diazanona-3,6-dien-1-yl]phenyl}-acetamide]: the solubility in water was 80 µg/mL (≈ 204 µM). On to `CN/C(=N\[N+](=O)[O-])NCc1cnc(Cl)s1` [Clothianidin, (E)-1-(2-chlorothiazol-5-ylmethyl)-3-methyl-2-nitroguanidine], for which the solubility in water was 270 µg/mL (≈ 1080 µM).
